Common to all, as to type: cell-based
One assay has as its target T1, human ANO2 (Homo sapiens, UniProt Q9NQ90).
T1 sequence (Q9NQ90 1-998): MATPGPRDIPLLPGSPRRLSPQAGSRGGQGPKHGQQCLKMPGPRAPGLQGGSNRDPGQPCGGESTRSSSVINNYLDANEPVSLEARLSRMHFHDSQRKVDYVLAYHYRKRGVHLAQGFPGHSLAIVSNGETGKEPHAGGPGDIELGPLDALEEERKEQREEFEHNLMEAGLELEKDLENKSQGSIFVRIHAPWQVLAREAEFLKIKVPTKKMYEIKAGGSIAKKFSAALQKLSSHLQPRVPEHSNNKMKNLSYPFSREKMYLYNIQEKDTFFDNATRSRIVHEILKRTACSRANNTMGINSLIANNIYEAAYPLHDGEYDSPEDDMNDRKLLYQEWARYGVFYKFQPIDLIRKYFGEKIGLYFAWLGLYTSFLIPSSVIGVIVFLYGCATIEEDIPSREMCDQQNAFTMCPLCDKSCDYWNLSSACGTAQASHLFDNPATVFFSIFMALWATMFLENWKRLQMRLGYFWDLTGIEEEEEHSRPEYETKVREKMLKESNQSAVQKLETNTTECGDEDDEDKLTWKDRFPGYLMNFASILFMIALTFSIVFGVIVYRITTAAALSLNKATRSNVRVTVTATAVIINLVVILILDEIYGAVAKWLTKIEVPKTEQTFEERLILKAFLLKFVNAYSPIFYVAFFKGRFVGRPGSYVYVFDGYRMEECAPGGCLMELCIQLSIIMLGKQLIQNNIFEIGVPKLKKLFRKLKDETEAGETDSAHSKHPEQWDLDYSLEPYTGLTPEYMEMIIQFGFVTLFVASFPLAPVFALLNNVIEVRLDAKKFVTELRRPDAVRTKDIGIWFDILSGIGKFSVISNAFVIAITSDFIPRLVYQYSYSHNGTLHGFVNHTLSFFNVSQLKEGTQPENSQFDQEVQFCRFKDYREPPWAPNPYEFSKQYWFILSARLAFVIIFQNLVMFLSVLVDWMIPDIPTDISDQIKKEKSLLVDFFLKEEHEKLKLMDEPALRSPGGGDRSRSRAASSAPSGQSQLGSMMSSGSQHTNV
Put plainly: YFP quenching anion channel assay, FRT-ANO2 cells.

The target of assay [1] is T2, ANO6 phospholipid scramblase (Homo sapiens, UniProt Q4KMQ2).
T2 sequence (Q4KMQ2 1-931 isoform Q4KMQ2-2): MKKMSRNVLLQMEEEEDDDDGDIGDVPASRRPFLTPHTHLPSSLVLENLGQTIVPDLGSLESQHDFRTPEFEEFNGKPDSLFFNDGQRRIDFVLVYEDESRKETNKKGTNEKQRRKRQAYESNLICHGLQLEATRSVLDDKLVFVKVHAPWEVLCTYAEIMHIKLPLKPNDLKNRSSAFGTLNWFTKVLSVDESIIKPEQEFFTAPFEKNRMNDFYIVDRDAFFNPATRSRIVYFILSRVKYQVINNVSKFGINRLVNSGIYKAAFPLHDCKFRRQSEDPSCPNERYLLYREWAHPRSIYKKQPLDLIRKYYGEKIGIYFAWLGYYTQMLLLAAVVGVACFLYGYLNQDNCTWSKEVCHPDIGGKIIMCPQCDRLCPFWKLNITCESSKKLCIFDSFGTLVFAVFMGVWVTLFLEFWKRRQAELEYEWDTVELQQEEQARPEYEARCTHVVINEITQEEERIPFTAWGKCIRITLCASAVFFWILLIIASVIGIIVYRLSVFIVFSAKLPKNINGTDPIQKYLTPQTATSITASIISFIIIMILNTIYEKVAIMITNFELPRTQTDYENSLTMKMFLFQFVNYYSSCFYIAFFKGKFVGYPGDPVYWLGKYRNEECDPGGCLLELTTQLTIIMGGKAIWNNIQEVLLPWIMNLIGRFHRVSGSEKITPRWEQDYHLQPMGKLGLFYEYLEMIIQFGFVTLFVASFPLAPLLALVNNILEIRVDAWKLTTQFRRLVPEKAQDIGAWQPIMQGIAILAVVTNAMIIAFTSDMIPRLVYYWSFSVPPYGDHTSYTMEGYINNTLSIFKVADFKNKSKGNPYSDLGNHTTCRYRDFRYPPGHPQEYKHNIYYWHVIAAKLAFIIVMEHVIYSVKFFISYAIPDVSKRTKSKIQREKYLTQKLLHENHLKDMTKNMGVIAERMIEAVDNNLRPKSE
The experiment in a line: Ionomycin-induced PS externalization.

The subject of assay [2] is recombinant eGFP adenovirus (Ad-eGFP). The experiment in a line: Adenovirus. Conditions: 10 μM; 1 MOI; 48 h; HEK 293T.

Broadly, the IC50 is the concentration that inhibits the measured activity by half. A lower IC50 goes with higher potency.

Take `O=C(NCc1ccc(F)cc1)c1cccc(Nc2ccc(-c3ccccc3)nn2)c1` [A6-001, N-(4-fluorobenzyl)-3-((6-phenylpyridazin-3-yl)amino)benzamide]: the “ANO6 selectivity against ANO2” value at human ANO2 stood at 90 fold. Moreover, in assay [1], the midpoint of inhibition, the IC50, lay at 910 nM. The “ionomycin-induced PS externalization” value in assay [1] (10 μM, FRT-ANO6 cells) is listed as “most effective”. Besides, in assay [1] (larger), the “scramblase IC50 relative to that for ANO6 ion channel activity” value was “approximately 10 fold”. In addition, the “replications of the non-enveloped adenovirus” value in assay [2] was “did not affect”.

Values taken from article PMC9250890 (Cell Reports, 2022).
